Experimental data from the supplement of paper PMC3937590.

Key:
Assay in all cases: -log10 GI50 (growth inhibition 50%) (-log10(M)); higher = more potent growth inhibition
[1] = system: 600MPE
Method in brief: (§1)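 Dose-response data came from breast cancer cell lines exposed to each compound for 72 hours at nine doses in 1:5 serial dilution, in triplicate, and read by luminescence relative to a time-zero plate. A Gompertz curve fitted by nonlinear least squares gave GI50, the molar concentration for the set level of growth inhibition, reported as its negative logarithm to base 10. Where a value equals the top dose, it carries a < qualifier.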

[2] = system: AU565
Method in brief: as §1

[3] = system: BT549
Method in brief: as §1

[4] = system: HCC1143
Method in brief: as §1

[5] = system: HCC1419
Method in brief: as §1

[6] = system: HCC1428
Method in brief: as §1

[7] = system: HCC1569
Method in brief: as §1

[8] = system: HCC1806
Method in brief: as §1

[9] = system: HCC1937
Method in brief: as §1

[10] = system: HCC1954
Method in brief: as §1

[11] = system: HCC38
Method in brief: as §1

[12] = system: MDAMB134VI
Method in brief: as §1

[13] = system: MDAMB157
Method in brief: as §1

[14] = system: MDAMB231
Method in brief: as §1

[15] = system: MDAMB361
Method in brief: as §1

[16] = system: SUM159PT
Method in brief: as §1

[17] = system: SUM225CWN
Method in brief: as §1

[18] = system: SUM229PE
Method in brief: as §1

[19] = system: T47D_KBluc
Method in brief: as §1

[20] = system: ZR75B
Method in brief: as §1

| Structure (SMILES) | -log10 GI50 [3] | -log10 GI50 [4] | -log10 GI50 [5] | -log10 GI50 [6] | -log10 GI50 [7] | -log10 GI50 [8] | -log10 GI50 [9] | -log10 GI50 [10] | -log10 GI50 [11] | -log10 GI50 [12] | -log10 GI50 [13] | -log10 GI50 [14] | -log10 GI50 [15] | -log10 GI50 [19] | -log10 GI50 [1] | -log10 GI50 [2] | -log10 GI50 [16] | -log10 GI50 [17] | -log10 GI50 [18] | -log10 GI50 [20] |
| --- | --- | --- | --- | --- | --- | --- | --- | --- | --- | --- | --- | --- | --- | --- | --- | --- | --- | --- | --- | --- |
| CSCC[C@H](NC(=O)[C@H](Cc1ccccc1)NC[C@@H](NC[C@@H](N)CS)C(C)C)C(=O)O [FTase inhibitor I] | < 4.18 | < 4.48 | < 4.18 | < 4.48 | < 4.18 | < 4.48 | < 4.48 | < 4.48 | < 4.48 | < 4.48 | < 4.18 | < 4.18 | < 4.18 | < 4.18 | < 4.48 | < 4.48 | 5 | 4.49 | < 4.48 | < 4.48 |
| O=C1c2ccccc2-[n+]2ccc3c([nH]c4ccccc43)c21 [Fascaplysin] | 6.28 | 6.56 | 6.58 | 7.43 | 6.33 | 6.59 | 6.41 | 6.57 | 6.56 | 6.65 | 6.77 | 6.6 | 7.09 | 7.31 | 6.55 | 6.95 | 6.37 | 7.25 | 6.51 | 6.39 |
| O=c1[nH]c(=O)n([C@H]2C[C@H](O)[C@@H](CO)O2)cc1F [Floxuridine] | 3.57 | 4.08 | 2.73 | 4.04 | 3.38 | 4.02 | 3.37 | 3.99 | 3.79 | 3.2 | 3.87 | 3.32 | 3.4 | 2.8 | 5.81 | 4.97 | 4.49 | 3.53 | 4.16 | 5.16 |
| CCCCCN(C)CCC(O)(P(=O)(O)O)P(=O)(O)O [Ibandronate sodium] | 4.53 | 4.38 | 5.12 | 3.89 | 4.21 | 4.44 | 4.53 | 4.26 | 4.3 | 4.17 | 4.36 | 4.21 | 4.83 | 3.92 | 3.67 | 3.74 | 4.37 | 3.3 | 4.27 | 3.84 |
| Cc1ccc(NC(=O)c2ccc(CN3CCN(C)CC3)cc2)cc1Nc1nccc(-c2cccnc2)n1 [Imatinib] | 4.45 | 4.53 | 4.74 | 4.8 | 4.75 | 5.15 | 4.69 | 5.04 | 4.45 | 4.47 | 4.76 | 4.82 | 4.57 | 4.67 | 4.62 | 4.72 | 4.75 | 4.9 | 5.27 | 4.63 |
| Cc1ccc(C(=O)N(CCCN)[C@@H](c2nc3cc(Cl)ccc3c(=O)n2Cc2ccccc2)C(C)C)cc1 [Ispinesib] | 7.34 | 7.29 | 5.18 | 5.37 | 6.8 | 7.55 | 6.56 | 7.52 | 7.33 | 7.36 | 7.5 | 7.5 | 7.46 | 6.79 | 7.69 | 7.65 | 7.33 | 6.99 | 7.48 | 6.89 |
| C/C(=C\c1csc(C)n1)[C@@H]1C[C@@H]2O[C@]2(C)CCC[C@H](C)[C@H](O)[C@@H](C)C(=O)C(C)(C)[C@@H](O)CC(=O)N1 [Ixabepilone] | 8.26 | 8.01 | 4.93 | 7.23 | 6.55 | 8.36 | 6.76 | 8.71 | 8.55 | 9 | 8.33 | 9.34 | 8.64 | 7.61 | 8.53 | 8.42 | 8.16 | 5.96 | 8.72 | 6.95 |
| C[C@]12O[C@H](C[C@]1(O)CO)n1c3ccccc3c3c4c(c5c6ccccc6n2c5c31)CNC4=O [Lestaurtinib] | 6.19 | 6.48 | 5.94 | 6.3 | 6.19 | 6.79 | 6.21 | 5.31 | 7.06 | 6.33 | 6.46 | 6.14 | 6.45 | 5.17 | 5.77 | 6.07 | 6.55 | 6.03 | 6.48 | 6.34 |
| CN(Cc1cnc2nc(N)nc(N)c2n1)c1ccc(C(=O)N[C@@H](CCC(=O)O)C(=O)O)cc1 [Methotrexate] | < 3.48 | 7.62 | 7.24 | < 3.48 | < 3.48 | 5.76 | < 3.48 | 8.07 | < 3.48 | < 3.48 | 7.12 | < 3.48 | 6.8 | 6.57 | 5.39 | 5.36 | < 3.48 | < 3.48 | < 3.48 | < 3.48 |
| O=C(/C=C/C#Cc1cccc(NS(=O)(=O)c2ccccc2)c1)NO [Oxamflatin] | 5.96 | 6.28 | 5.88 | 6.33 | 5.88 | 6.16 | 5.84 | 5.81 | 6.77 | 6.18 | 6.13 | 5.58 | 6.15 | 5.9 | 5.53 | 6.19 | 6.5 | 6.06 | 5.74 | 6.41 |
| Nc1nc2[nH]cc(CCc3ccc(C(=O)N[C@@H](CCC(=O)O)C(=O)O)cc3)c2c(=O)[nH]1 [Pemetrexed] | < 2.53 | < 2.53 | < 2.53 | < 2.53 | < 2.53 | 6.05 | 3.17 | < 2.53 | < 2.53 | < 2.53 | < 2.53 | < 2.53 | 6.19 | < 2.53 | < 2.53 | < 2.53 | < 2.53 | < 2.53 | 4.53 | < 2.53 |
| CC(C)[C@H](CO)Nc1nc(Nc2cccc(Cl)c2)c2ncn(C(C)C)c2n1 [Purvalanol A] | < 3.78 | < 3.78 | < 3.78 | 4.18 | 4.7 | 4.14 | 4.37 | 4.11 | < 3.78 | 4.26 | < 3.78 | < 3.78 | < 3.78 | < 3.78 | 4.15 | 4.39 | < 3.78 | 4.36 | 4.91 | < 3.78 |
| O=S(=O)(CC1CS1)c1ccc(Oc2ccccc2)cc1 (stereo not given) [SB-3CT] | 5.17 | < 4 | < 3.78 | 4.24 | < 3.78 | < 4 | < 4 | < 4 | 4.31 | < 4 | < 3.78 | < 3.78 | < 3.78 | < 3.78 | < 4 | < 4 | 4.85 | < 4 | < 4 | 4.62 |
| CC(/C=C/C(=O)NO)=C\[C@@H](C)C(=O)c1ccc(N(C)C)cc1 [Trichostatin A] | 5.13 | 4.77 | 4.9 | 5.73 | 5.06 | 4.97 | 4.82 | 4.96 | 5.22 | 5.2 | 4.68 | 5.26 | 5.09 | 5.4 | 5.19 | 5.44 | 5.23 | 4.86 | 4.83 | 5.3 |
| CCCC(CCC)C(=O)O [Valproic acid] | 2.57 | 2.66 | 2.93 | 3.13 | 2.77 | 2.58 | 2.56 | 2.52 | 3.05 | 3.12 | 2.68 | 2.16 | 2.82 | 2.76 | 2.52 | 2.85 | 2.91 | 2.76 | 2.65 | 2.71 |

Now from value to compound, other results behind:

| -log10 GI50 [3] | -log10 GI50 [4] | -log10 GI50 [5] | -log10 GI50 [6] | -log10 GI50 [7] | -log10 GI50 [8] | -log10 GI50 [9] | -log10 GI50 [10] | -log10 GI50 [11] | -log10 GI50 [12] | -log10 GI50 [13] | -log10 GI50 [14] | -log10 GI50 [15] | -log10 GI50 [19] | Structure (SMILES) | -log10 GI50 [1] | -log10 GI50 [2] | -log10 GI50 [16] | -log10 GI50 [17] | -log10 GI50 [18] | -log10 GI50 [20] |
| --- | --- | --- | --- | --- | --- | --- | --- | --- | --- | --- | --- | --- | --- | --- | --- | --- | --- | --- | --- | --- |
| 5.01 | 5.05 | 4.77 | < 4.18 | 5.21 | < 4.18 | < 4.18 | < 4.48 | 5.96 | 5.9 | < 4.18 | 4.58 | 4.65 | < 4.18 | Cc1cncc2cccc(S(=O)(=O)N3CCCN(C(=O)CN)C[C@@H]3C)c12 [Glycyl H1152] | < 4.18 | 5.14 | 5.76 | < 4.18 | 5.31 | < 4.18 |
| 6.54 | 6.58 | 6.68 | 6.94 | 4.86 | 7.67 | 5.58 | 5.35 | 7.3 | 7.06 | 7.25 | 7.03 | 7.03 | 6.71 | NS(=O)(=O)OC[C@@H]1C[C@@H](n2ccc3c(N[C@H]4CCc5ccccc54)ncnc32)C[C@@H]1O [MLN4924] | 6.49 | 6.74 | 6.31 | 5.28 | 6.59 | 6.84 |
| 4.37 | 4.67 | < 4.18 | 4.5 | 4.43 | 4.32 | 4.65 | 4.76 | 4.67 | 4.47 | 4.76 | < 4.18 | 4.18 | 4.5 | COc1ccc(C2=N[C@@H](c3ccc(Cl)cc3)[C@@H](c3ccc(Cl)cc3)N2C(=O)N2CCNC(=O)C2)c(OC(C)C)c1 [Nutlin 3a] | 4.81 | 4.79 | 4.78 | 4.69 | 4.63 | 5.69 |
| < 3.88 | < 3.88 | 4.31 | 4.09 | 4.33 | < 3.88 | < 3.88 | 4.52 | 3.95 | < 3.88 | < 3.88 | < 3.88 | < 3.88 | < 3.88 | N#Cc1c(-c2ccccc2)cc(-c2cc(Br)ccc2O)[nH]c1=O [TCS PIM-11] | < 3.88 | < 4.18 | 4.46 | 4.53 | 4.57 | < 3.88 |
| 5.75 | 6 | 4.81 | 5.11 | 5.68 | 4.76 | 5.1 | 5.32 | 6.74 | 6.03 | 5.43 | 4.95 | 5.1 | 4.49 | Cc1cc(Nc2cc(N3CCN(C)CC3)nc(Sc3ccc(NC(=O)C4CC4)cc3)n2)n[nH]1 [VX-680] | 5.06 | 5.66 | 6.47 | 4.76 | 6.47 | 6.79 |
